Like-named read-outs stand apart in the source and are kept apart here. Where a SMILES comes first, the peptide text is derived from it. [ ]: non-standard residue; d: D form. The star is where a group is joined. NHPhenethyl = c1ccc(CCN*)cc1; Isovaleryl = CC(C)CC(=O)*; Isobutyryl = CC(C)C(=O)*; Ac4c = NC1(C(=O)O)CCC1; Deg = CCC(N)(CC)C(=O)O; Pentanoyl = CCCCC(=O)*; Aib = CC(C)(N)C(=O)O; NHBn = c1ccc(CN*)cc1; NHiPr = CC(C)N*; For = O=C*
Molecular target: WDR5 (Homo sapiens (Human), UniProt P61964)
Test: FP based competitive binding assay to WDR5
Conditions: for fold decrease of binding affinity relative to Ac-10mer: ratio vs Ac-10mer; for fold increase of binding affinity to WDR5 on acetylation of the free amino group: vs corresponding unacetylated H3 peptide
Method: Another aspect of the invention is development of a Fluorescent Polarization (FP) based competitive binding assay. […] Next, the millipolarization (mP) values were measured at different time points in order to determine equilibrium duration and stability.
Accordingly, the optimal protein concentrations for the competitive assay was investigated.
All the FP based experiments were performed in MICROFLUOR® 2 Black, “U” Bottom, 96-well Microtiter Plates (ThermoSci.) and FP was measured as mP units in a microplate reader (Tecan Ultra) with excitation at 485 nm and emission at 530 nm. The Kd of the tracers and the IC50 value of the inhibitors were calculated using GraphPad Prism 4 software.
The binding affinities of the synthetic peptides shown in the study were measured using this competitive binding assay. A pre-incubated complex solution of WDR5Δ23 and the tracer in 120 μl assay buffer were added to dilutions of the test compound in 5 μl DMSO, giving final concentrations of WDR5Δ23 and the tracer of 4 nM and 0.6 nM, respectively. […] The plates were incubated with shaking at room temperature. The mP values were measured after five hours of incubation and Ki values were calculated using the equation described previously(31).

[1] = read-out: Binding Affinity to WDR5 (IC50 ± SD), Table 5 peptidomimetics
[2] = 4 nM WDR5Δ23, 0.6 nM 10mer-Thr-FAM tracer, Ki calculated by equation of ref. 31, read-out: Ki ± SD
[3] = 4 nM WDR5Δ23, 0.6 nM 10mer-Thr-FAM tracer, read-out: IC50 ± SD

| Molecule | IC50 [1] | further results |
| --- | --- | --- |
| CCC(CC)NC(=O)[C@H](CCCNC(=N)N)NC(=O)C(CC)(CC)NC(=O)C(C)C [Compound 11B] | < 1 µM | – |
| C[C@H](N)C(=O)N[C@@H](CCCNC(=N)N)C(=O)N[C@H](C(=O)N[C@@H](CCCC[N+](C)(C)C)C(=O)N[C@@H](CCC(N)=O)C(=O)N[C@H](C(=O)N[C@@H](C)C(=O)N[C@@H](CCCNC(=N)N)C(=O)N[C@@H](CCCCN)C(=O)N[C@@H](CO)C(N)=O)[C@@H](C)O)[C@@H](C)O [L3-10mer-K4Me3, H2N-ARTK(Me3)QTARKS-NH2, reference compound] | – | Ki [2]: 15.6 ± 1.2 µM; IC50 [3]: 73 ± 6 µM |
| CC(C)C(=O)NC1(C(=O)N[C@@H](CCCNC(=N)N)C(=O)NC2(C(=O)NC(c3ccccc3)c3ccccc3)CCCC2)CCC1 [Compound 10B] | < 1 µM | – |
| CC[C@H](NC(=O)[C@H](CCCNC(=N)N)NC(=O)C(C)(C)NC(C)=O)C(N)=O [Compound 6A] | < 1 µM | – |
| CC(=O)N[C@H](C(=O)N[C@@H](CCCNC(=N)N)C(=O)NC1(C(N)=O)CC1)C(C)C [Compound 5A] | < 10 µM | – |
| CC(=O)N[C@@H](C)C(=O)N[C@@H](CCCNC(=N)N)C(N)=O [Ac-2mer, Ac-AR-NH2] (Ac-Ala-Arg-NH2) | – | Ki [2]: 27 ± 1.4 µM; IC50 [3]: 125 ± 6 µM |
| C[C@H](NC(=O)[C@H](CCCNC(=N)N)NC(=O)[C@H](C)NC(=O)C1CCC1)C(N)=O [Compound 9F] | < 10 µM | – |
| C[C@H](N)C(=O)N[C@@H](CCCNC(=N)N)C(=O)N[C@H](C(N)=O)[C@@H](C)O [Compound H3-3mer, H2N-ART-NH2, reference compound] (H-Ala-Arg-Thr-NH2) | – | Ki [2]: 27.3 ± 2.5 µM; IC50 [3]: 127 ± 12 µM |
| CCC(CC)(NC(=O)c1ccccc1)C(=O)N[C@H](CCCNC(=N)N)C(=O)NC1(C(=O)NC(c2ccccc2)c2ccccc2)CCCC1 [Compound 10J] | < 10 µM | – |
| CC(=O)NC1(C(=O)N[C@@H](CCCNC(=N)N)C(=O)N[C@H](C(N)=O)C(C)C)CCC1 [Compound 4B] | < 1 µM | – |
| CCC(CC)(NC(=O)c1ccccc1)C(=O)N[C@@H](CCCNC(=N)N)C(=O)NC1(C(N)=O)CCCC1 [Compound 10E] | > 1 µM | – |
| CCC(CC)(NC(=O)C(C)C)C(=O)N[C@@H](CCCNC(=N)N)C(=O)NCCc1ccccc1 [Compound 11L] (Isobutyryl-[Deg]-Arg-NHPhenethyl) | > 10 µM | – |
| CC(C)CC(=O)N[C@@H](C)C(=O)N[C@@H](CCCNC(=N)N)C(=O)N[C@@H](C)C(N)=O [Compound 9B] (Isovaleryl-Ala-Arg-Ala-NH2) | > 10 µM | – |
| Ac-RAEVHLRKS-NH2 [Ac-9mer] | – | fold decrease of binding affinity relative to Ac-10mer: 1500 |
| CC(=O)N[C@@H](C)C(=O)N[C@@H](CCCNC(=N)N)C(=O)N[C@H](C(N)=O)[C@@H](C)O [Ac-H3-3mer, Ac-ART-NH2] (Ac-Ala-Arg-Thr-NH2) | – | IC50 [3]: 0.08 ± 0.003 µM; Ki (read-out: Ki): 0.02 µM; fold increase of binding affinity to WDR5 on acetylation of the free amino group: 1500 |
| C[C@H](NC(=O)[C@H](CCCNC(=N)N)NC(=O)[C@H](C)NC(=O)CC1CCCC1)C(N)=O [Compound 9G] | > 1 µM | – |
| C[C@H](N)C(=O)N[C@@H](CCCNC(=N)N)C(=O)N[C@@H](C)C(N)=O [Compound H2N-3mer, H2N-ARA-NH2] (H-Ala-Arg-Ala-NH2) | – | binding to WDR5 (in words): does not bind to WDR5 up to the concentrations tested |
| CC[C@H](NC(=O)[C@H](CCCNC(=N)N)NC(=O)C1(NC(C)=O)CCC1)C(=O)NCc1ccccc1 [Compound 8A] | < 1 µM | – |
| CC(=O)NC(C)(C)C(=O)N[C@@H](CCCNC(=N)N)C(=O)N[C@H](C(N)=O)[C@@H](C)O [Compound 6C] (Ac-[Aib]-Arg-Thr-NH2) | < 1 µM | – |
| C[C@H](NC(=O)[C@H](CCCNC(=N)N)NC(=O)[C@H](C)NC=O)C(N)=O [CHO-3mer, CHO-ARA-NH2] (For-Ala-Arg-Ala-NH2) | – | Ki [2]: 3.2 ± 0.3 µM; IC50 [3]: 14.9 ± 1.4 µM; times less potent than Ac-3mer (ratio vs Ac-3mer): 25 |
| CCC(CC)(NC(=O)C(C)C)C(=O)N[C@@H](CCCNC(=N)N)C(=O)NC1CCCCC1 [Compound 11E] | < 10 µM | – |
| CCC(CC)(NC(=O)C(C)C)C(=O)N[C@@H](CCCNC(=N)N)C(=O)N[C@H](C)c1ccccc1 [Compound 11F] | < 30 µM | – |
| Ac-ARAEV-NH2 [Ac-5mer, Ac-ARAEV-NH2] | – | IC50 (read-out: IC50 ± SD): 0.75 ± 0.1 µM; Ki (read-out: Ki ± SD): 0.16 ± 0.03 µM |
| CC(=O)NC1(C(=O)N[C@@H](CCCNC(=N)N)C(=O)N[C@H](C(N)=O)C(C)C)CCCC1 [Compound 4C] | < 1 µM | – |
| CC(=O)N[C@@H](C)C(=O)N[C@@H](CCCNC(=N)N)C(=O)N[C@@H](C)C(=O)NC1CCCCC1 [Compound 7C] | < 1 µM | – |
| CC(=O)N[C@H](C(=O)N[C@@H](CCCNC(=N)N)C(=O)NC1(C(N)=O)CCC1)C(C)C [Compound 5B] | < 10 µM | – |

| Molecule | IC50 [1] | further results |
| --- | --- | --- |
| CC(=O)N[C@H](C(=O)N[C@@H](CCCNC(=N)N)C(=O)NC1(C(N)=O)CCCCC1)C(C)C [Compound 5D] | < 10 µM | – |
| Ac-ARAEVHL-NH2 [Ac-7mer, Ac-ARAEVHL-NH2] | – | fold decrease of binding affinity relative to Ac-10mer: 10; IC50 (read-out: IC50 ± SD): 0.16 ± 0.03 µM; Ki (read-out: Ki ± SD): 0.03 ± 0.01 µM |
| CC(=O)N[C@@H](C)C(=O)N[C@@H](CCCNC(=N)N)C(=O)N[C@@H](C)C(=O)N[C@@H](CCC(=O)O)C(N)=O [Ac-4mer, Ac-ARAE-NH2] (Ac-ARAE-NH2) | – | Ki [2]: 0.08 ± 0.01 µM; IC50 [3]: 0.4 ± 0.05 µM |
| C[C@H](N)C(=O)N[C@@H](CCCNC(=N)N)C(=O)N[C@H](C(=O)N[C@@H](CCCCN)C(=O)N[C@@H](CCC(N)=O)C(=O)N[C@H](C(=O)N[C@@H](C)C(=O)N[C@@H](CCCNC(=N)N)C(=O)N[C@@H](CCCCN)C(=O)N[C@@H](CO)C(N)=O)[C@@H](C)O)[C@@H](C)O [Compound H3-10mer, reference compound] | – | Ki (4 nM WDR5Δ23, 0.6 nM 10mer-Thr-FAM tracer, Ki calculated by equation of ref. 31, listed as wild-type H3 peptide, read-out: Ki ± SD): 15 µM; IC50 [3]: 70 ± 6 µM |
| CC(=O)N[C@@H](C)C(=O)N[C@@H](CCCNC(=N)N)C(=O)N[C@@H](C)C(=O)NCc1ccccc1 [Compound 7E] (Ac-Ala-Arg-Ala-NHBn) | < 1 µM | – |
| CC(=O)N[C@@H](C)C(=O)N[C@@H](CCCNC(=N)N)C(=O)N[C@H](C(=O)N[C@@H](CCCCN)C(=O)N[C@@H](CCC(N)=O)C(=O)N[C@H](C(=O)N[C@@H](C)C(=O)N[C@@H](CCCNC(=N)N)C(=O)N[C@@H](CCCCN)C(=O)N[C@@H](CO)C(N)=O)[C@@H](C)O)[C@@H](C)O [Ac-H3-10mer] | – | IC50 [3]: 0.006 ± 0.002 µM; fold increase of binding affinity to WDR5 on acetylation of the free amino group: greater than 10,000 |
| CC(=O)N[C@@H](C)C(=O)N[C@@H](CCCN)C(=O)N[C@@H](C)C(N)=O [Compound 2B] | > 1 µM | – |
| CC(=O)N[C@H](C(=O)N[C@@H](CCCNC(=N)N)C(=O)NC1(C(N)=O)CCCC1)C(C)C [Compound 5C] | < 1 µM | – |
| CC(C)C(=O)N[C@@H](C)C(=O)N[C@@H](CCCNC(=N)N)C(=O)N[C@@H](C)C(N)=O [Compound 9A] (Isobutyryl-Ala-Arg-Ala-NH2) | < 1 µM | – |
| CC(=O)N[C@@H](C)C(=O)N[C@@H](CCCNC(=N)N)C(=O)N[C@@H](C)C(=O)NC(c1ccccc1)c1ccccc1 [Compound 7F] | < 1 µM | – |
| CC(=O)NC1(C(=O)N[C@@H](CCCNC(=N)N)C(=O)N[C@H](C(N)=O)C(C)C)CC1 [Compound 4A] | < 1 µM | – |
| CC(=O)N[C@@H](C)C(=O)N[C@@H](CCCNC(=N)N)C(=O)N[C@@H](C)C(=O)NC(C)C [Compound 7A] (Ac-Ala-Arg-Ala-NHiPr) | < 1 µM | – |
| CCCC[C@H](NC(=O)[C@H](C)NC(C)=O)C(=O)N[C@@H](C)C(N)=O [Compound 2A] | > 1 µM | – |
| CCC(CC)(NC(=O)C(C)C)C(=O)N[C@@H](CCCNC(=N)N)C(=O)NC1CCCC1 [Compound 11I] | < 10 µM | – |
| CCC(CC)NC(=O)[C@H](C)NC(=O)[C@H](CCCNC(=N)N)NC(=O)[C@H](C)NC(C)=O [Compound 7B] | < 1 µM | – |
| CCC(CC)(NC(=O)C(C)C)C(=O)N[C@H](CCCNC(=N)N)C(=O)NC1(C(N)=O)CCCC1 [Compound 10D] | < 20 µM | – |
| CC(=O)N[C@@H](C)C(=O)N[C@@H](CCCNC(=N)N)C(=O)N[C@@H](C)C(N)=O [Ac-3mer, Ac-ARA-NH2] (Ac-Ala-Arg-Ala-NH2) | – | Ki [2]: 0.12 ± 0.01 µM; IC50 [3]: 0.54 ± 0.03 µM |
| CC(=O)N[C@@H](C)C(=O)N[C@H](C(=O)N[C@@H](C)C(N)=O)C1CCN(C(=N)N)CC1 [Compound 2G] | > 10 µM | – |
| CC(=O)NC1(C(=O)N[C@@H](CCCNC(=N)N)C(=O)N[C@H](C(N)=O)[C@@H](C)O)CCC1 [Compound 6F] (Ac-[Ac4c]-Arg-Thr-NH2) | < 1 µM | – |
| CCC(CC)(NC(=O)C(C)C)C(=O)N[C@@H](CCCNC(=N)N)C(=O)N[C@@H](C)c1ccccc1 [Compound 11G] | < 30 µM | – |
| CC(=O)N[C@@H](C)C(=O)N[C@@H](CCCNC(=N)N)C(=O)N(C)[C@@H](C)C(N)=O [Δ1, Ac-AR-(N—Me)A-NH2] | – | binding to WDR5 (in words): complete loss of its binding to WDR5 |
| CCC(CC)(NC(=O)C(C)C)C(=O)N[C@@H](CCCNC(=N)N)C(=O)NCCCCc1ccccc1 [Compound 11N] | < 10 µM | – |
| CCCCC(=O)N[C@@H](C)C(=O)N[C@@H](CCCNC(=N)N)C(=O)N[C@@H](C)C(N)=O [Compound 9D] (Pentanoyl-Ala-Arg-Ala-NH2) | > 10 µM | – |
| CCC(CC)(NC(=O)C(C)C)C(=O)N[C@@H](CCCNC(=N)N)C(=O)NC(C(C)C)C(C)C [Compound 11J] | < 10 µM | – |
| CCC(CC)(NC(=O)C(C)C)C(=O)N[C@@H](CCCNC(=N)N)C(=O)NCCCc1ccccc1 [Compound 11M] | > 1 µM | – |

Source: US9233086B2 (THE REGENTS OF THE UNIVERSITY OF MICHIGAN, priority 2010, dated 2016)
